# According to PubChem BioAssay (NCI):
# Several values for one entry are separate records, joined by “and”; a condition that tells them apart may be missing. Identical values can stand only once.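 Cells were grown in 96-well plates and exposed to each compound for 48 hours at five concentrations; endpoints were interpolated linearly between bracketing concentrations, or set to the highest concentration if not reached. Abbreviation: GI50, concentration required for 50% inhibition of growth. Definition used: TGI = concentration required for complete inhibition of growth.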 Where a SMILES comes first, the peptide text is derived from it. [ ]: non-standard residue; d: D form. The star is where a group is joined. mTyr = N[CH](Cc1cccc(O)c1)C(=O)O; Cbz = O=C(OCc1ccccc1)*; OBn = c1ccc(CO*)cc1
# Legend:
# Assay in all cases: growth of human tumour cells (NCI), 48 h
# UO-31 renal = test system: UO-31 renal
# SW-620 colon = test system: SW-620 colon
# HT29 colon = test system: HT29 colon
# SR leukemia = test system: SR leukemia
# KM12 colon = test system: KM12 colon
# COLO 205 colon = test system: COLO 205 colon
# SF-268 CNS = test system: SF-268 CNS
# OVCAR-3 ovarian = test system: OVCAR-3 ovarian
# UACC-62 melanoma = test system: UACC-62 melanoma
# CAKI-1 renal = test system: CAKI-1 renal
Compound,TGI (UO-31 renal) [µM],TGI (SW-620 colon) [µM],TGI (HT29 colon) [µM],TGI (SR leukemia) [µM],TGI (KM12 colon) [µM],TGI (COLO 205 colon),TGI (SF-268 CNS),TGI (OVCAR-3 ovarian) [µM],TGI (UACC-62 melanoma) [µM],TGI (CAKI-1 renal) [µM],GI50 (OVCAR-3 ovarian) [µM],GI50 (UO-31 renal) [nM],GI50 (SW-620 colon) [nM],GI50 (HT29 colon) [µM],GI50 (CAKI-1 renal) [µM],GI50 (KM12 colon) [µM],GI50 (COLO 205 colon) [µM],GI50 (SF-268 CNS) [nM],GI50 (UACC-62 melanoma) [nM],GI50 (SR leukemia) [µM]
O[C@H]1[C@H](O)[C@@H](O)[C@@]2(O)C[C@@H](O)[C@@H]1N2,> 100,> 100,> 100,> 100,> 100,> 100 µM,> 100 µM,> 100,> 100,,,,,,,,,,,
Brc1c(C#CCC2CCCCC2)ccc(C#CCC2CCCCC2)c1Br,,> 100,,> 100,> 100,> 100 µM,> 100 µM,> 100,> 100,> 100,,,,,,,,,,
CCOC(=O)CSc1nnc(C(Sc2nc(-c3ccccc3)c(-c3ccccc3)[nH]2)C(C)C)n1-c1ccccc1 (centres undefined),> 31.6,> 31.6,19.4,> 89.6,> 31.6,28.6 µM,> 31.6 µM,> 10,> 10,,,,,,,,,,,
O=C1NC(=S)N(c2ccccc2)C1=O,> 100,> 100,> 100,> 100,> 100,> 100 µM,> 100 µM,,> 100,> 100,,,,,,,,,,
CCCc1ccc(NCc2cc(OC)c(OC)c(OC)c2)cc1,56.6,,61.7,,55.2,,79.2 µM,54.4,> 100,,19,,,,,,,,,
CSCCC(NC(=O)Cc1ccc(C(=O)c2ccccc2)cc1)C(=O)O (centres undefined),> 100,> 100,> 100,,> 100,> 100 µM,> 100 µM,> 100,> 100,> 100,,,,,,,,,,
COc1ccc(/C=C2\CN(C)C/C(=C\c3ccc(OC)c(OC)c3OC)C2=O)c(OC)c1OC,,0.425,,0.0854,,0.287 µM,2.01 µM,0.335,0.548,1.55,,,,,,,,,,
Cc1nc(-c2ccc(N=Cc3ccc(N(CCOS(C)(=O)=O)CCOS(C)(=O)=O)cc3C)cc2)cs1,62,> 100,> 100,> 100,> 100,> 100 µM,40.2 µM,> 100,> 100,,,,,,,,,,,
CC1OC(OC2C(OC(=O)[C@@H]3CC(C)(C)C[C@H]4C5=CC[C@@H]6[C@@]7(C)C[C@H](O)[C@H](OC8OC(CO)C(O)C(O)C8O)[C@@](C)(CO)[C@@H]7[C@H](O)C[C@@]6(C)[C@]5(C)CC[C@@]34C)OCC(O)C2O)C(O)C(O)C1O (some centres undefined),> 7.5,> 7.5,> 7.5,,> 7.5,> 7.5 µM,> 7.5 µM,> 7.5,> 7.5,> 7.5,,,,,,,,,,
CC(C)C1=CC23CCC4C(C)(C(=O)O)CCCC4(C)C2CC1C1C(=O)N(c2ccc(C(=O)O)cc2)C(=O)C13 (centres undefined),> 100,> 100,> 100,,> 100,> 100 µM,> 100 µM,> 100,> 100,> 100,,,,,,,,,,
CCC1(COC(NC(=O)c2ccccc2)(C(F)(F)F)C(F)(F)F)COC1,> 100,> 100,> 100,> 100,,> 100 µM,> 100 µM,,,> 100,,,,,,,,,,
CCOc1ccc(-n2nnc3c(N)nc(N)nc32)cc1,,> 100,> 100,> 100,> 100,> 100 µM,,> 100,> 100,> 100,,,,,,,,,,
O=C(CC(=O)Nc1ccccc1)N/N=C/c1cc(N=Nc2ccc(Br)cc2)ccc1O,7.93,> 10,,9.75,> 10,> 10 µM,> 10 µM,,> 10,> 10,,,,,,,,,,
COc1cc([C@@H]2c3cc(O)c(OC)cc3C=C(C(N)=O)[C@H]2C(N)=O)ccc1O,> 100,> 100,> 100,> 100,> 100,> 100 µM,> 100 µM,> 100,,> 100,,,,,,,,,,
Fc1ccccc1C1SCc2nc3cc4ccccc4cc3n21 (centres undefined),> 100,> 100,> 100,,> 100,> 100 µM,> 100 µM,> 100,> 100,> 100,,,,,,,,,,
CC(NC(C)(C)C)C(=O)c1cccc(Cl)c1 (centres undefined),,> 100,> 100,,> 100,> 100 µM,> 100 µM,> 100,> 100,> 100,,,,,,,,,,
CC1OC(O[C@H]2/C=C/C=C/C=C/C=C/C=C/C=C/C=C/[C@H](C)[C@@H](O)[C@@H](C)[C@H](C)OC(=O)CC(O)CC(O)CCC(O)C(O)CC(O)C[C@]3(O)C[C@H](O)C(C(=O)O)C(C2)O3)C(O)[C@H](N)C1O (some centres undefined),2.76,7.73,14.7,,20.2,17.2 µM,4.29 µM,5.35,7.62,11.7,2.39,1400,2580,4.3,3.16,6.16,4.19,2060,2780,
COC12c3ccccc3-c3ccccc3C1[C@H]1C(=O)OC(=O)[C@H]12 (some centres undefined),> 10,> 10,> 10,> 10,> 10,> 10 µM,> 10 µM,> 10,,> 10,,,,,,,,,,
Cc1ccc(N=Nc2c(O)c(C(=O)Nc3ccccc3)cc3ccccc23)c([N+](=O)[O-])c1,> 100,> 100,> 100,,> 100,> 100 µM,> 100 µM,> 100,> 100,> 100,,,,,,,,,,
CC(=O)OCC1OC(n2c(=O)[nH]c(=O)c3sccc32)C(Br)C1OC(C)=O (centres undefined),> 100,> 100,> 100,> 100,> 100,> 100 µM,> 100 µM,> 100,,> 100,,,,,,,,,,
CC1(C)OCC(C(O)C2OC(C)(C)OC2/C=N\O)O1 (centres undefined),> 100,> 100,> 100,,> 100,> 100 µM,> 100 µM,> 100,,,,,,,,,,,,
COC(=O)C(Cc1cccc(O)c1)NC(=O)C(CC(=O)OCc1ccccc1)NC(=O)OCc1ccccc1 (centres undefined) (Cbz-Asp(OBn)-[mTyr]-OMe; configuration not given here),> 100,> 100,> 100,> 100,> 100,> 100 µM,,,> 100,,,,,,,,,,,
CC(C)=C/C=C1/CS(=O)(=O)C=C1C,> 100,> 100,> 100,,> 100,> 100 µM,,> 100,> 100,> 100,,,,,,,,,,

Compound,TGI (UO-31 renal) [µM],TGI (SW-620 colon) [µM],TGI (HT29 colon) [µM],TGI (SR leukemia) [µM],TGI (KM12 colon) [µM],TGI (COLO 205 colon),TGI (SF-268 CNS),TGI (OVCAR-3 ovarian) [µM],TGI (UACC-62 melanoma) [µM],TGI (CAKI-1 renal) [µM],GI50 (OVCAR-3 ovarian) [µM],GI50 (UO-31 renal) [nM],GI50 (SW-620 colon) [nM],GI50 (HT29 colon) [µM],GI50 (CAKI-1 renal) [µM],GI50 (KM12 colon) [µM],GI50 (COLO 205 colon) [µM],GI50 (SF-268 CNS) [nM],GI50 (UACC-62 melanoma) [nM],GI50 (SR leukemia) [µM]
Cc1n[nH]c(=O)n1/N=C/c1ccc([N+](=O)[O-])o1,30.2,37.8,30.1,,29.3,20.8 µM,45.6 µM,17.8,33.6,19.9,,,,,,,,,,
C/C1=C\[C@@H](O)C(=O)/C=C/C=C\c2csc(n2)[C@@H](C)NC(=O)C[C@@]2(CC1)S(=O)SC(=O)[C@]2(C)O (some centres undefined),0.0889,0.0143,,,,0.0903 µM and 0.0418 µM,0.285 µM and 0.06 µM,,0.0487,0.0191,,,,,,,,,,> 100
O=C(N/N=C/c1cc(Cl)cc(Cl)c1O)c1ccccc1O,29.5,21.5,26.1,> 100,34.7,> 100 µM,30.8 µM,1.65,3.89,,,,,,,3.72,11.2,,,
COc1cc(/C=C(/C#N)C(N)=O)ccc1O,> 100,> 100,> 100,,> 100,> 100 µM,> 100 µM,> 100,> 100,> 100,,,,,,,,,,
Cc1cc(NCCCCCCCNc2cc(C)nc3cc([N+](=O)[O-])ccc23)c2ccc([N+](=O)[O-])cc2n1,29,4.61,8.43,,3.74,27 µM,7.5 µM,25,53.2,65.2,,,,,,,,,,
FC(F)(F)c1ccc2nc(Sc3ccccn3)cnc2c1,> 100,> 100,> 100,,> 100,> 100 µM,> 100 µM,,88.3,> 100,,,,,,,,,,
Nc1ccc(C(=O)NN2C(=O)C(Cl)C2c2ccccc2)cc1 (centres undefined),> 100,> 100,> 100,,> 100,> 100 µM,> 100 µM,> 100,> 100,> 100,,,,,,,,,,
COc1cc(C(c2ccc3c(c2)OCO3)N2C(=O)CCC2C(=O)O)cc(OC)c1OC (centres undefined),> 100,> 100,> 100,,> 100,> 100 µM,> 100 µM,> 100,> 100,> 100,,,,,,,,,,
COc1ccc2oc(=N)c(C(=O)Nc3ccccn3)cc2c1,,> 100,> 100,> 100,> 100,> 100 µM,> 100 µM,> 100,> 100,> 100,,,,,,,,,,
O=C(CSC1=NCCN1)Nc1ccccc1,> 100,> 100,> 100,> 100,> 100,,93.3 µM,51.4,52.4,> 100,,,,,,,,,,
c1ccc(CSCCc2ccncc2)cc1,> 100,> 100,> 100,,> 100,> 100 µM,> 100 µM,> 100,> 100,,,,,,,,,,,
Cc1ccc(CC(C)N)cc1 (centres undefined),> 100,> 100,> 100,,> 100,> 100 µM,> 100 µM,> 100,> 100,> 100,,,,,,,,,,
CCOP(=O)(OCC)C(C)(CC)NC (centres undefined),> 100,> 100,> 100,,> 100,> 100 µM,> 100 µM,> 100,> 100,> 100,,,,,,,,,,
c1ccc2c3c([nH]c2c1)C1CCCN1CC3 (centres undefined),> 10,> 10,> 10,> 10,> 10,> 10 µM,> 10 µM,> 10,,> 10,,,,,,,,,,
CC1=NN(C(=O)CSc2nc3ccc(I)cc3c(=O)n2Cc2ccccc2)C(=O)C1,,> 100,> 100,74,> 100,92.5 µM,69.5 µM,54.9,> 100,> 100,,,,,,,,,,
CNc1ccc(N)cc1C(=O)N1CCC[C@H]1CO,> 100,> 100,> 100,,> 100,> 100 µM,> 100 µM,,> 100,> 100,,,,,,,,,,
COc1cc(-c2cc(-c3cc([N+](=O)[O-])c(/C=N/NC(=O)c4ccncc4)o3)ccc2OC)ccc1C,,> 100,> 100,,,> 100 µM,> 100 µM,> 100,> 100,> 100,,,,,,,,,,
CCC(c1c[nH]c2ccc(Br)cc12)c1c[nH]c2ccc(Br)cc12,18.7,19.1,10.4,,4.22,6.09 µM,20.7 µM,14.2,22.2,6.58,,,,,,,,,,
CC(C)(C)c1cc(C2COC(c3cc(C(C)(C)C)c(O)c(C(C)(C)C)c3)CO2)cc(C(C)(C)C)c1O (centres undefined),> 100,> 100,> 100,,> 100,96.7 µM,> 100 µM,> 100,> 100,> 100,,,,,,,,,,
O=[As](O)(O)c1ccc(N=Nc2ccc(O)cc2)cc1,> 100,> 100,> 100,,> 100,> 100 µM,> 100 µM,> 100,> 100,> 100,,,,,,,,,,
COc1ccc2c(c1)CCN1CCc3cc(OC)c(OC)cc3CC21 (centres undefined),> 100,> 100,> 100,> 100,> 100,> 100 µM,> 100 µM,,> 100,> 100,,,,,,,,,,
CCN(CC)Cc1sc2nc3ccccc3n2c1-c1ccc(OC)cc1,> 100,> 100,40.7,,> 100,77.3 µM,> 100 µM,> 100,> 100,> 100,,,,,,,,,,
